According to patent US20260167620A1, “MULTIFUNCTIONAL COMPOUND CAPABLE OF DEGRADING BTK KINASE, AND COMPOSITION AND USE” (HANGZHOU HEALZEN THERAPEUTICS CO., LTD., priority 2021, published 2026):

Tests used:
Format in all cases: cell-based
BTK = target: T1, BTK (Homo sapiens, UniProt Q06187); assay: BTK degradation activity test in Mino cells (Westernblot or Elisa); settings: 24-72 h incubation
T1 construct: endogenous in cells; host or cells: Mino cells
Protocol: The Mino cell line cells are 0.5˜1 million/well in 6-well plates. The compounds are diluted to different concentrations, added to the plate, and after 24-72 h of incubation, the cells are collected. After the cells were lysed, the total protein concentration in each well was determined with a BCA kit. The amount of BTK is determined using the Westernblot or Elisa method.

Mino cells = assay: Inhibitory activity on Mino cell proliferation (MTS); settings: Homo sapiens, 72 h or 168 h
Protocol: (§1) The anti-tumor efficacy of the compounds was tested by measuring their inhibitory effects on OCI-LY10 and Mino cell proliferation. OCI-LY10 and Mino cells were cultured in RPM-1640 medium containing […] fetal calf serum. OCI-LY10 and Mino cells were digested, inoculated in a 96-well plate at a cell concentration of 10000 cells/well, and incubated overnight at 37° C., 5% CO2. Compounds of different concentrations (1000 nM, 4-fold dilution, 8 points) were added to the 96-well plate and incubated for 72 h or 168 h at 37° C. and […], and then 20 μL of MTS was added to each well. After incubation for 2 h, 25 μl of 10% SDS was added to each well to terminate the reaction. The absorbance at 490 nm and 650 nm were measured with a microplate reader. IC50 was calculated using GraphPad Prism 5.0.

OCI-LY10 cells = assay: Inhibitory activity on OCI-LY10 cell proliferation (MTS); settings: Homo sapiens, 72 h or 168 h
Protocol: as §1

T1 sequence (Q06187 whole entry): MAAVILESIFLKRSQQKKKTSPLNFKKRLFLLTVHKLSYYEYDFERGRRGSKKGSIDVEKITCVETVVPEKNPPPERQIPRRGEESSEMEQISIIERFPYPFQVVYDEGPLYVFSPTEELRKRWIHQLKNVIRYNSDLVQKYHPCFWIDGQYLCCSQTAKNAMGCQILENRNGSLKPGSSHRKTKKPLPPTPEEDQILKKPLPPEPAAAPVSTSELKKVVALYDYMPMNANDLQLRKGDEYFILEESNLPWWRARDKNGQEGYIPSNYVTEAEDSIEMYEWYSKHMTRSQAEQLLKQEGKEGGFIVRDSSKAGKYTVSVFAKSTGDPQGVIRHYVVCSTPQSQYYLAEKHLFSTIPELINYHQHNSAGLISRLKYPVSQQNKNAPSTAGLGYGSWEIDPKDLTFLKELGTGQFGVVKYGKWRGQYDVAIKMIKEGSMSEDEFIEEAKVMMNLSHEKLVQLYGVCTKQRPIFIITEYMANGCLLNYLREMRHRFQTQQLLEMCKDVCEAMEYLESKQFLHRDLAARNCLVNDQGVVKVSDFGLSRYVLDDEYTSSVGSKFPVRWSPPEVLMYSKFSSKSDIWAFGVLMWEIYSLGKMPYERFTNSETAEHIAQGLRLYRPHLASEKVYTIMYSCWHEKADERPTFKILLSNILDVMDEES

SMILES	DC50 (BTK) [nM]	IC50 (OCI-LY10 cells) [nM]	IC50 (Mino cells) [nM]
NC(=O)c1nnc(N2CCCCC2)nc1Nc1ccc(C2CCN(CC3CCN(c4ccc5c(c4)CCN(C4CCC(=O)NC4=O)C5=O)C3)CC2)cc1 (stereo not shown) [Compound 013, 5-((4-(1-((1-(2-(2,6-dioxopiperidin-3-yl)-1-oxo-1,2,3,4-tetrahydroisoquinolin-6-yl)pyrrolidin-3-yl)methyl)piperidin-4-yl)phenyl)amino)-3-(piperidin-1-yl)-1,2,4-triazine-6-carboxamide]	< 10		3.37
NC(=O)c1nnc(N2CCCCC2)nc1Nc1ccc(N2CCC(CN3CCN(c4ccc(N5CCC(=O)NC5=O)cc4)CC3)CC2)c(F)c1 [Compound 050, 5-((4-(4-((4-(4-(2,4-dioxotetrahydropyrimidin-1(2H)-yl)phenyl)piperazin-1-yl)methyl)piperidin-1-yl)-3-fluorophenyl)amino)-3-(piperidin-1-yl)-1,2,4-triazine-6-carboxamide]	< 10		6.05
CC(=O)N[C@@H]1CCCN(c2nnc(C(N)=O)c(Nc3ccc(N4CCN(CC5CCN(c6ccc(C(=O)NC7CCC(=O)NC7=O)c(F)c6)CC5)CC4)c(F)c3)n2)C1 (stereo partly drawn) [Compound 093, 3-((R)-3-acetamidopiperidin-1-yl)-5-((4-(4-((1-(4-((2,6-dioxopiperidin-3-yl)carbamoyl)-3-fluorophenyl)piperidin-4-yl)methyl)piperazin-1-yl)-3-fluorophenyl)amino)-1,2,4-triazine-6-carboxamide]	< 10		
CC(=O)N[C@@H]1CCCN(c2nnc(C(N)=O)c(Nc3ccc(N4CCN(CC5CCN(c6ccc(-c7ccc(=O)[nH]n7)cc6C(F)(F)F)CC5)CC4)c(F)c3)n2)C1 [Compound 095, (R)-3-(3-acetamidopiperidin-1-yl)-5-((3-fluoro-4-(4-((1-(4-(6-oxo-1,6-dihydropyridazin-3-yl)-2-(trifluoromethyl)phenyl)piperidin-4-yl)methyl)piperazin-1-yl)phenyl)amino)-1,2,4-triazine-6-carboxamide]	< 10		
CC(=O)N[C@@H]1CCCN(c2nnc(C(N)=O)c(Nc3ccc(N4CCN(CC5CCN(c6ccc(NC7CCC(=O)NC7=O)c(F)c6)CC5)CC4)c(F)c3)n2)C1 (stereo partly drawn) [Compound 097, 3-((R)-3-acetamidopiperidin-1-yl)-5-((4-(4-((1-(4-((2,6-dioxopiperidin-3-yl)amino)-3-fluorophenyl)piperidin-4-yl)methyl)piperazin-1-yl)-3-fluorophenyl)amino)-1,2,4-triazine-6-carboxamide]	< 10		
Cc1cc(N2CCC(CN3CCN(c4ccc(Nc5nc(N6CCOCC6)nnc5C(N)=O)cc4F)CC3)CC2)ccc1N1CCC(=O)NC1=O [Compound 098, 5-((4-(4-((1-(4-(2,4-dioxotetrahydropyrimidin-1(2H)-yl)-3-methylphenyl)piperidin-4-yl)methyl)piperazin-1-yl)-3-fluorophenyl)amino)-3-morpholino-1,2,4-triazine-6-carboxamide]	< 10		3.11
NC(=O)c1nnc(N2CCOCC2)nc1Nc1ccc(N2CCN(CC3CCN(c4ncc(-c5ccc(=O)[nH]n5)cc4C(F)(F)F)CC3)CC2)c(F)c1 [Compound 102, 5-((3-fluoro-4-(4-((1-(5-(6-oxo-1,6-dihydropyridazin-3-yl)-3-(trifluoromethyl)pyridin-2-yl)piperidin-4-yl)methyl)piperazin-1-yl)phenyl)amino)-3-morpholino-1,2,4-triazine-6-carboxamide]	< 10		
NC(=O)c1nnc(N2CCOCC2)nc1Nc1ccc(N2CCN(CC3CCN(c4ccc(-c5ccc(=O)[nH]n5)cc4C(F)(F)F)CC3)CC2)c(F)c1 [Compound 103, 5-((3-fluoro-4-(4-((1-(4-(6-oxo-1,6-dihydropyridazin-3-yl)-2-(trifluoromethyl)phenyl)piperidin-4-yl)methyl)piperazin-1-yl)phenyl)amino)-3-morpholino-1,2,4-triazine-6-carboxamide]	< 10		

Continued, in another order:

DC50 (BTK) [nM]	IC50 (OCI-LY10 cells) [nM]	SMILES	IC50 (Mino cells) [nM]
< 10		Cn1c(=O)n(C2CCC(=O)NC2=O)c2ccc(N3CCC(CN4CCC(c5ccc(Nc6nc(N7CCCCC7)nnc6C(N)=O)cc5)CC4)C3)cc21 (stereo not shown) [Compound 011, 5-((4-(1-((1-(1-(2,6-dioxopiperidin-3-yl)-3-methyl-2-oxo-2,3-dihydro-1H-benzo[d]imidazol-5-yl)pyrrolidin-3-yl)methyl)piperidin-4-yl)phenyl)amino)-3-(piperidin-1-yl)-1,2,4-triazine-6-carboxamide]	4.2
< 10		NC(=O)c1nnc(N2CCCCC2)nc1Nc1ccc(C2CCN(CC3CCN(c4ccc5c(=O)n(C6CCC(=O)NC6=O)ccc5c4)C3)CC2)cc1 (stereo not shown) [Compound 012, 5-((4-(1-((1-(2-(2,6-dioxopiperidin-3-yl)-1-oxo-1,2-dihydroisoquinolin-6-yl)pyrrolidin-3-yl)methyl)piperidin-4-yl)phenyl)amino)-3-(piperidin-1-yl)-1,2,4-triazine-6-carboxamide]	1.22
< 10		NC(=O)c1cnc(N2CCCCC2)nc1Nc1ccc(C2CCN(CC3CCN(c4ccc5c(c4)C(=O)N(C4CCC(=O)NC4=O)C5=O)C3)CC2)cc1 (stereo not shown) [Compound 033, 4-((4-(1-((1-(2-(2,6-dioxopiperidin-3-yl)-1,3-dioxoisoindolin-5-yl)pyrrolidin-3-yl)methyl)piperidin-4-yl)phenyl)amino)-2-(piperidin-1-yl) pyrimidine-5-carboxamide]	9.1
< 10	0.61	NC(=O)c1nnc(N2CCCCC2)nc1Nc1ccc(N2CCC(CN3CCN(c4ccc(N5CCC(=O)NC5=O)cc4)CC3)CC2)nc1 [Compound 048, 5-((6-(4-((4-(4-(2,4-dioxotetrahydropyrimidin-1(2H)-yl)phenyl)piperazin-1-yl)methyl)piperidin-1-yl)pyridin-3-yl)amino)-3-(piperidin-1-yl)-1,2,4-triazine-6-carboxamide]	
< 10		Cc1cc(N2CCC(=O)NC2=O)ccc1N1CCC(CN2CCN(c3ccc(Nc4nc(N5CCCCC5)nnc4C(N)=O)cc3F)CC2)CC1 [Compound 084, 5-((4-(4-((1-(4-(2,4-dioxotetrahydropyrimidin-1(2H)-yl)-2-methylphenyl)piperidin-4-yl)methyl)piperazin-1-yl)-3-fluorophenyl)amino)-3-(piperidin-1-yl)-1,2,4-triazine-6-carboxamide]	3.3
< 10		NC(=O)c1nnc(N2CCCCC2)nc1Nc1ccc(N2CCN(CC3CCN(c4ccc(-c5ccc(=O)[nH]n5)cc4C(F)(F)F)CC3)CC2)c(F)c1 [Compound 087, 5-((3-fluoro-4-(4-((1-(4-(6-oxo-1,6-dihydropyridazin-3-yl)-2-(trifluoromethyl)phenyl)piperidin-4-yl)methyl)piperazin-1-yl)phenyl)amino)-3-(piperidin-1-yl)-1,2,4-triazine-6-carboxamide]	4.31
< 10		CC(=O)N[C@@H]1CCCN(c2nnc(C(N)=O)c(Nc3ccc(N4CCN(CC5CCN(c6ncc(-c7ccc(=O)[nH]n7)cc6C(F)(F)F)CC5)CC4)c(F)c3)n2)C1 [Compound 094, (R)-3-(3-acetamidopiperidin-1-yl)-5-((3-fluoro-4-(4-((1-(5-(6-oxo-1,6-dihydropyridazin-3-yl)-3-(trifluoromethyl)pyridin-2-yl)piperidin-4-yl)methyl)piperazin-1-yl)phenyl)amino)-1,2,4-triazine-6-carboxamide]	
< 10		CC(=O)N[C@@H]1CCCN(c2nnc(C(N)=O)c(Nc3ccc(N4CCN(CC5CCN(c6ccc(NC7CCC(=O)NC7=O)nc6)CC5)CC4)c(F)c3)n2)C1 (stereo partly drawn) [Compound 096, 3-((R)-3-acetamidopiperidin-1-yl)-5-((4-(4-((1-(6-((2,6-dioxopiperidin-3-yl)amino)pyridin-3-yl)piperidin-4-yl)methyl)piperazin-1-yl)-3-fluorophenyl)amino)-1,2,4-triazine-6-carboxamide]	
< 10		NC(=O)c1nnc(N2CCOCC2)nc1Nc1ccc(N2CCN(CC3CCN(c4ccc(N5CCC(=O)NC5=O)cc4)CC3)CC2)c(F)c1 [Compound 099, 5-((4-(4-((1-(4-(2,4-dioxotetrahydropyrimidin-1(2H)-yl)phenyl)piperidin-4-yl)methyl)piperazin-1-yl)-3-fluorophenyl)amino)-3-morpholino-1,2,4-triazine-6-carboxamide]	
< 10		NC(=O)c1nnc(N2CCOCC2)nc1Nc1ccc(N2CCN(CC3CCN(c4ccc(C(=O)NC5CCC(=O)NC5=O)c(F)c4)CC3)CC2)c(F)c1 (stereo not shown) [Compound 101, 5-((4-(4-((1-(4-((2,6-dioxopiperidin-3-yl)carbamoyl)-3-fluorophenyl)piperidin-4-yl)methyl)piperazin-1-yl)-3-fluorophenyl)amino)-3-morpholino-1,2,4-triazine-6-carboxamide]	
< 10		NC(=O)c1nnc(N2CCOCC2)nc1Nc1ccc(N2CCN(CC3CCN(c4ccc(NC5CCC(=O)NC5=O)nc4)CC3)CC2)c(F)c1 (stereo not shown) [Compound 104, 5-((4-(4-((1-(6-((2,6-dioxopiperidin-3-yl)amino)pyridin-3-yl)piperidin-4-yl)methyl)piperazin-1-yl)-3-fluorophenyl)amino)-3-morpholino-1,2,4-triazine-6-carboxamide]	
